The subject of assay [1] is T1, BgaD.
T1 construct: gene B8809_0415; His6-tagged, expressed in Lactococcus lactis (pNZ8150), Ni-purified; trimer
The assay is described as follows: o-nitrophenol release, A420. The note with it: 0.1 M sodium acetate pH 6.5, 40 °C; unit mM, not in table. Type of assay: biochemical, Bifidobacterium longum subsp. longum. The text has this: o-nitrophenol release, A420 on BgaD

Assay [2] relates to T2, BgaE.
T2 construct: gene B8809_0611; tetramer
The assay is described as follows: o-nitrophenol release, A420. The note with it: 0.1 M sodium acetate pH 6.5, 40 °C; unit mM, not in table. Type of assay: biochemical, Bifidobacterium longum subsp. longum. The text has this: o-nitrophenol release, A420 on BgaE

As for `O=[N+]([O-])c1ccccc1O[C@@H]1O[C@H](CO)[C@H](O)[C@H](O)[C@H]1O` [ONPG], the Km in assay [1] was 17 mM; in assay [2] it was 11.1 mM.

The record behind these values is PMC8126724, “Infant-Associated Bifidobacterial β-Galactosidases and Their Ability to Synthesize Galacto-Oligosaccharides” (Frontiers in Microbiology, 2021).
